# From patent US20180353501A1 (Arvinas, Inc., priority 2017, published 2018)
# Target: T1, p38α:PROTAC:VHL ternary complex (Homo sapiens, UniProt P40337+Q16539)
# T1 construct: encodes a region spanning amino acids 2-360 of the human p38α kinase; made in house; host or cells: E. coli (BL21-CodonPlus(DE3)-RIPL for p38α; BL21(DE3) for GST-VBC)
# Experiment: In vitro ternary complex pull-down with GST-VBC bait, purified p38α
# Format: binding
# Procedure: FIGS. 14A, 14B, and 14C. p38α selectivity is discriminated by ternary complex formation. (A) Only p38α incubated in the presence of exemplary compound 50 can be immunoprecipitated with GST-tagged VHL/EloB/EloC (VBC). Immobilized VBC was used as a bait to trap purified p38α in the presence of vehicle (DMSO), compound 50, or compound 46 (represented in micromolar concentrations). The rightmost lane represents a 1:25 dilution of initial input protein used in each pull-down. (B) Proximity-based AlphaLISA assay detects significant p38α:compound 50:VHL ternary complex, but no p38α:compound 46:VHL ternary complex. His-p38α and GST-VBC were incubated in the presence of increasing concentrations of compound 50 and compound 46 and the extent of ternary complex formation was assessed by excitation with incident light with 1=680 nm and capture of the emission light at 1=615 nm. Error bars represent the SD from quadruplicate experiments. […] FLAGimmunoprecipitated lysates were separated by SDS-PAGE and assessed via western blots detecting HA (Ub). […]
# Following this logic, to the present disclosure seeks to describe the selectivity of exemplary compound 50 for p38α at the ternary complex level through the use of an in vitro ternary complex pull-down assay. […] Similarly, exemplary PROTACs 46 and 50 were evaluated in a proximity-based luminescence assay (AlphaLISA) to detect ternary complex formation. […]
# T1 sequence (Q16539 2-360 limits assumed): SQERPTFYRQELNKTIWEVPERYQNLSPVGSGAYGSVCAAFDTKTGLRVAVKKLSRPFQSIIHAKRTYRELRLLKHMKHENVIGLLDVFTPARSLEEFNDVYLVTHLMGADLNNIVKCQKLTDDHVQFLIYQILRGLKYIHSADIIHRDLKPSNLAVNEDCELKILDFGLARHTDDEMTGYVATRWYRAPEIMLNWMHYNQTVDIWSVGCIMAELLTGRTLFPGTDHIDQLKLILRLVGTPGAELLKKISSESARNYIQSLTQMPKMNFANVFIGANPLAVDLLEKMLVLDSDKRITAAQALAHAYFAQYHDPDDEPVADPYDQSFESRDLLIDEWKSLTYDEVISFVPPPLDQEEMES
# T1 sequence (P40337 whole entry, the tested form may be a part): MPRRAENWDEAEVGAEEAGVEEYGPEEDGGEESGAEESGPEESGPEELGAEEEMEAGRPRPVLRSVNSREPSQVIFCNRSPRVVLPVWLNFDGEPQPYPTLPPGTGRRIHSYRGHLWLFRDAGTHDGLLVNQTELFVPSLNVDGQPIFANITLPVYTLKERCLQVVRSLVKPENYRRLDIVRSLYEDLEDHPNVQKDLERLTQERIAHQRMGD
# T1 sequence (Q15370 whole entry partner, the tested form may be a part): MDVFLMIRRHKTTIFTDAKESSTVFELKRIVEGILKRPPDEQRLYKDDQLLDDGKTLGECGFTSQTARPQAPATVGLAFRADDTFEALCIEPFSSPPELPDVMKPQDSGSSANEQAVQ
# T1 sequence (Q15369 whole entry partner, the tested form may be a part): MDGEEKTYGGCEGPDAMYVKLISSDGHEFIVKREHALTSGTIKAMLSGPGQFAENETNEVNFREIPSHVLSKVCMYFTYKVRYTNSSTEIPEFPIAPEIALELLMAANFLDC
row,Compound,enrichment of purified p38α on GST-VBC bait
1,COc1cc2c(Oc3ccc(NC(=O)C4(C(=O)Nc5ccc(F)cc5)CC4)cc3F)ccnc2cc1OCCOCCOCCOc1cc(-c2scnc2C)ccc1CNC(=O)[C@@H]1C[C@@H](O)CN1C(=O)[C@H](C(C)C)N1Cc2ccccc2C1=O [compound 46],no detectable enrichment
2,"COc1cc2c(Oc3ccc(NC(=O)C4(C(=O)Nc5ccc(F)cc5)CC4)cc3F)ccnc2cc1OCCCCOCCCCOCC(=O)N[C@H](C(=O)N1C[C@H](O)C[C@H]1C(=O)NCc1ccc(-c2scnc2C)cc1)C(C)(C)C [compound 50, N-(3-fluoro-4-((7-(4-(4-(2-(((S)-1-((2S,4R)-4-hydroxy-2-((4-(4-methylthiazol-5-yl)benzyl)carbamoyl)pyrrolidin-1-yl)-3,3-dimethyl-1-oxobutan-2-yl)amino)-2-oxoethoxy)butoxy)buto-xy)-6-methoxyquinolin-4-yl)oxy)phenyl)-N-(4-fluorophenyl)cyclopropane-1,1-dicarboxa-mide]",substantial enrichment of purified p38α
